# Tests used:
# Format in all cases: cell-based
# [1] = molecular target: T1, rat VR1 capsaicin receptor (Rattus norvegicus, UniProt O35433); test: Fluo-3 fluorescence calcium response in VR1 cells (VIPR)
# T1 construct: expressed in transfected cells
# Procedure: Parental HEK293 cell lines expressing apoaequorin (293AEQ17 cells) were used to develop stable clonal cell lines expressing the rat VR1 capsaicin receptor (Caterina, M. J., Schumacher, M. A., Tominaga, M., Rosen, T. A., Levine, J. D., and Julius, D. (1997) The capsaicin receptor: a heat-activated ion channel in the pain pathway. Nature 389, 816-824). The VR1 293AEQ17 were maintained on growth media containing DMEM (GIBCOBRL, high glucose, with L-glutamine, with 110 mg/L sodium pyruvate, with pyridoxine HCl), 25 mM HEPES (GIBCOBRL, 1M stock), 0.5 mg/mL geneticin (GIBCOBRL, 50 mg/mL stock), 1 μg/mL puromycin (CLONTECH), and 10% fetal bovine serum (GEMINI BIO-PRODUCTS, heat inactivated) at 37° C., 10% CO^2.
# Cells were grown to 80-95% confluence in tissue culture flasks (T-225, CORNING) and harvested by trypsinization (Trypsin/EDTA, GIBCOBRL). Cells were dispensed (about 1×10^5 cells/0.2 ml/well) into 96-well black clear-bottom BIOCOAT poly-D-lysine plates (BECTON DICKENSON, Bedford, Mass.) in growth media and incubated overnight at 37° C. in a humidified incubator at 10% CO^2. Cells were washed once with 200 μls of enriched PBS (Dulbecco's PBS (GIBCOBRL #14040-117), 10 mM HEPES, 2 g/L glucose; pH 7.2) and then incubated with 100 μl of 5 μM fluo-3-AM (MOLECULAR PROBES #F1241) with or without of 1,2-bis(o-aminophenoxy)ethane-N,N,N′,N′-tetraacetic acid tetra(acetoxymethyl) ester (BAPTA-AM, MOLECULAR PROBES #B 1205) in enriched PBS containing 0.02% pluronic F-127 (MOLECULAR PROBES #P-3000) for 30-70 minutes. Wells were washed two times with 100 μl of enriched-PBS, and then 100 μl enriched-PBS with or without antagonist was added for 15-30 minutes prior to assay on the AURORA fluorescence plate reader VIPR (ex. 480 nm, em. 535 nm). […] The calcium response was initiated by addition of 100 μl of the indicated concentration of capsaicin (SIGMA #M2028). The VIPR instrument was used to add agonist (in 100 μl enriched-PBS) after recording a 10 sec. baseline and the fluorescence was measured for up to 300 sec.
# Changes in intracellular calcium were measured using the fluo-3 dye and detecting the kinetics of the response after addition of the VR1 agonist, capsaicin (0.5 uM) to cells expressing VR1 using a VIPR fluorescence plate reader (FIGS. 5 & 6A).
# [2] = molecular target: T1, rat VR1 capsaicin receptor; test: Manual luminescence measurement in VR1 cells, read 2 minutes after agonist
# Procedure: Parental HEK293 cell lines expressing apoaequorin (293AEQ17 cells) were used to develop stable clonal cell lines expressing the rat VR1 capsaicin receptor.
# Cells were grown to 80-95% confluence in tissue culture flasks (T-225, Corning) and harvested by trypsinization (Trypsin/EDTA, GIBCOBRL). Cells were dispensed (about 1×10^5 cells/0.2 ml/well) into 96-well white clear-bottom BIOCOAT poly-D-lysine plates (BECTON DICKENSON, Bedford, Mass.) in growth media and incubated overnight at 37° C. in a humidified incubator at 10% CO^2.
# [3] = molecular target: T2, human growth hormone secretagogue receptor type 1a (hGHSR1A) (Homo sapiens, UniProt Q92847); test: Manual luminescence measurement in hGHSR1a cells, read 2 minutes after agonist; conditions: 2 minutes after 100 nM ghrelin, with BAPTA
# T2 construct: expressed in transfected cells
# Procedure: Parental HEK293 cell lines expressing apoaequorin (293AEQ17 cells) were used to develop stable clonal cell lines expressing the human growth hormone secretagogue receptor type 1a (hGHSR1A).
# Cells were charged with the aequorin substrate, coelenterazine h (MOLECULAR PROBES, #C-6780), by removing the growth media and incubating the cells with 75 μl of charge buffer (DMEM GIBCOBRL #12320-032; 0.1% FBS GEMINI BIO-PRODUCTS, Inc. #100-107;5 μM coelenterazine h; 30 μM reduced glutathione) for 2 hours at 37° C., 10% CO^2. […] The cells were then washed and loaded with 100 μl of enriched-PBS with or without the indicated antagonist. […] The WALLAC MICROBETA JET was used to measure 10 sec of luminescence after a delay of 2 minutes.
# J. Med Chem. 43 4370-4376). […] After a lapse of two minutes, the plates were read using the WALLAC MICROBETA JET luminometer. […] These complex dose-response curves were observed both in the presence and absence of BAPTA. Yet overall, the addition of BAPTA increased the luminescence such that a 6-fold signal over background could be measured 2 minutes after stimulation with agonist.
# [4] = molecular target: T1, rat VR1 capsaicin receptor; test: Aequorin luminescence in VR1 cells (WALLAC MICROBETA JET); conditions: no BAPTA
# Procedure: Parental HEK293 cell lines expressing apoaequorin (293AEQ17 cells) were used to develop stable clonal cell lines expressing the rat VR1 capsaicin receptor. The VR1 293AEQ17 were maintained on growth media containing DMEM (GIBCOBRL, high glucose, with L-glutamine, with 110 mg/L sodium pyruvate, with pyridoxine HCl), 25 mM HEPES (GIBCOBRL, 1M stock), 0.5 mg/mL geneticin (GIBCOBRL, 50 mg/mL stock), 1 μg/mL puromycin (CLONTECH), and 10% fetal bovine serum (GEMINI BIO-PRODUCTS, heat inactivated) at 37° C., 10% CO^2.
# Cells were grown to 80-95% confluence in tissue culture flasks (T-225, Corning) and harvested by trypsinization (Trypsin/EDTA, GIBCOBRL). Cells were dispensed (about 1×10^5 cells/0.2 ml/well) into 96-well white clear-bottom BIOCOAT poly-D-lysine plates (BECTON DICKENSON, Bedford, Mass.) in growth media and incubated overnight at 37° C. in a humidified incubator at 10% CO^2. Cells were charged with the aequorin substrate, coelenterazine h (MOLECULAR PROBES, #C-6780), by removing the growth media and incubating the cells with 75 μl of charge buffer (DMEM GIBCOBRL #12320-032; 0.1% FBS GEMINI BIO-PRODUCTS, Inc. #100-107;5 μM coelenterazine h; 30 μM reduced glutathione) for 2 hours at 37° C., 10% CO^2. The charge buffer was then removed and the cells were washed twice with 100 μl of enriched-PBS (pH 7.2) and then incubated with 100 μl of enriched-PBS supplemented with 0-30 μM BAPTA-AM for 30-120 min at 37° C., 10% CO^2. The cells were then washed and loaded with […] of enriched-PBS with or without the indicated antagonist. The calcium response was initiated by addition of 100 μl of the indicated concentration of capsaicin (SIGMA #M2028) to the wells by a WALLAC MICROBETA JET. In order to obtain more consistent kinetics, the Jet was set to simultaneously read only six wells per determination.
# For these experiments, the kinetics of the flash luminescence were followed using a WALLAC MICROBETA JET luminometer that injects reagent and records light emission from six wells of a 96-well plate simultaneously.
# [5] = 0.5 uM capsaicin, absence of BAPTA
# T1 sequence (O35433 whole entry): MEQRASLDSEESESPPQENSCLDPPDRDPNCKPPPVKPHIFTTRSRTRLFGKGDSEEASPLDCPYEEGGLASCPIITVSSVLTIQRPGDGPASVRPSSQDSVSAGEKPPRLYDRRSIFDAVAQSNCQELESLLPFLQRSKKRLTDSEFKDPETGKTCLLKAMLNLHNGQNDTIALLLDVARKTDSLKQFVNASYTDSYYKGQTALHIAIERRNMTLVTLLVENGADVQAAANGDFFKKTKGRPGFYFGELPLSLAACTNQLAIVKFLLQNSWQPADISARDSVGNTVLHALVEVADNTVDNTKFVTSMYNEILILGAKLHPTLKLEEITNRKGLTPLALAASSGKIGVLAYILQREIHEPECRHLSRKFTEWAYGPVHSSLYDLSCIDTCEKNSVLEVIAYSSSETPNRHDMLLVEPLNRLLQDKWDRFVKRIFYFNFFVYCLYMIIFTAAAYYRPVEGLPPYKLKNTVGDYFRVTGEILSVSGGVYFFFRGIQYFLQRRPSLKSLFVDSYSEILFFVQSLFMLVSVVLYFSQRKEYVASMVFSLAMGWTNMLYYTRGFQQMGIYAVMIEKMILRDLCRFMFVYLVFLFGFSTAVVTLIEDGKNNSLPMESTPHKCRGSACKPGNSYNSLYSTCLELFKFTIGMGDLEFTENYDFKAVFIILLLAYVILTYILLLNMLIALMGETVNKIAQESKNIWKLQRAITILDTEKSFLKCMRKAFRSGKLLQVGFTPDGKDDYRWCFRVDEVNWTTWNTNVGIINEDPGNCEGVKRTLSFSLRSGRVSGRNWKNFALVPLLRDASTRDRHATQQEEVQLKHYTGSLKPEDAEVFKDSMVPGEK
# T2 sequence (Q92847 whole entry): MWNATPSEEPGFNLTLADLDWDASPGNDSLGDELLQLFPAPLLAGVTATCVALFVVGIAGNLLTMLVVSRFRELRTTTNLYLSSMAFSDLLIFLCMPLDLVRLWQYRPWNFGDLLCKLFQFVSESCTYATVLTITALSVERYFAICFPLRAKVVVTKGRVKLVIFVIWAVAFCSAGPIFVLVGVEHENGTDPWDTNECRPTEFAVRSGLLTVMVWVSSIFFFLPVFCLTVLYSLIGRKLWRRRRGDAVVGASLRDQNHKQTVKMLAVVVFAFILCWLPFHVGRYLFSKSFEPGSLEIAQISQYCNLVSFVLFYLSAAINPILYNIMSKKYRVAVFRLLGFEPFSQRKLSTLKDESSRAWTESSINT
structure (smiles),measurement,setting,value
O=C(O)CN(CC(=O)O)c1ccccc1OCCOc1ccccc1N(CC(=O)O)CC(=O)O [BAPTA],effect on peak signal,"[1]; 3 μM BAPTA, 0.1 μM capsaicin",decreased the peak signal
same,signal over background,"[2]; 2 minutes after 0.5 uM capsaicin, with BAPTA",4 fold
same,signal over background,[3],6 fold
Oc1cc2c(cc1O)CN(C(=S)NCCc1ccc(Cl)cc1)CCC2 [capsazepine],block of capsaicin response,"[1]; 20 μM capsazepine, 0.5 uM capsaicin",completely blocked
same,block of luminescence signal,"[2]; higher concentrations of antagonist, 0.5 uM capsaicin, with and without BAPTA",completely blocked
COc1cc(CNC(=O)CCCC/C=C/C(C)C)ccc1O [capsaicin],time to decay to 50%,[1]; [5],about 150 sec
same,time to peak fluorescence response,[1]; [5],about 20 sec
same,time for luminescence signal to be largely complete,[4]; 50 nM capsaicin,≤ 30 s
same,time to peak luminescence,[4]; 50 nM capsaicin,about 10 sec
same,time to peak response,[4]; 0.5 μM capsaicin,about 5 sec

# From patent US6514709B1, “High throughput screening by measurement of intracellular calcium levels” (Merck & Co., Inc., priority 2000, dated 2003)
